From ChEMBL document CHEMBL1140442, “Potent cannabinergic indole analogues as radioiodinatable brain imaging agents for the CB1 cannabinoid receptor” (J Med Chem, 2005)

Biological target: T1, Cannabinoid receptor 1 (Mus musculus, UniProt P47746)
Experiment: Binding affinity towards mouse hippocampal membranes cannabinoid receptor 1 using [131I]-(R)-8

T1 sequence (P47746 whole entry): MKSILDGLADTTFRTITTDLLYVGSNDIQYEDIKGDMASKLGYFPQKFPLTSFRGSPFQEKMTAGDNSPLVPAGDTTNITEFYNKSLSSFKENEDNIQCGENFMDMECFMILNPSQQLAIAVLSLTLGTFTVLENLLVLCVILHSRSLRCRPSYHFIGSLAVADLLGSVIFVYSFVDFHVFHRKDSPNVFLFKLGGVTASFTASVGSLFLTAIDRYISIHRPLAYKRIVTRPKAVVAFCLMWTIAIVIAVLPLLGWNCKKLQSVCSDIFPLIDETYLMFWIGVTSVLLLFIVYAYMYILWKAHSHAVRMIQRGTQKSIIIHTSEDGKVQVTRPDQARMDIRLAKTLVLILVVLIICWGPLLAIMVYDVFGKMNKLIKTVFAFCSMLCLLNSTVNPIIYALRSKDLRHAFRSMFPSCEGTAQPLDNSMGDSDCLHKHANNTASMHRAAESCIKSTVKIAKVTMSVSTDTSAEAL

Structure (SMILES)	Ki [nM]
CN1CCCCC1Cn1cc(C(=O)c2ccccc2I)c2ccccc21 (configuration not stated)	0.2

Biological target: T1, Cannabinoid receptor 1
Experiment: Binding affinity towards mouse hippocampal membranes cannabinoid receptor 1 using [3H]SR-141,716A

Structure (SMILES)	Ki [nM]
CN1CCCCC1Cn1cc(C(=O)c2ccccc2I)c2ccccc21 (configuration not stated)	1.3

Biological target: Cannabinoid receptor 1 (Rattus norvegicus, UniProt P20272)
Experiment: Binding affinity towards rat forebrain cannabinoid receptor 1 using [3H]CP-55940

Chain of Cannabinoid receptor 1 (Rattus norvegicus, UniProt P20272) (P20272 whole entry): as the sequence (P47746 whole entry) above, with D95E counted along it

Structure (SMILES)	Ki [nM]
CN1CCCC[C@H]1Cn1cc(C(=O)c2ccccc2I)c2ccccc21	560
Cc1c(C(=O)c2cccc(I)c2)c2ccccc2n1CC1CCCCN1C (configuration not stated)	2900
CN1CCCCC1Cn1cc(C(=O)c2cccc3ccccc23)c2ccc(I)cc21 (configuration not stated)	18
CN1CCCCC1Cn1cc(C(=O)c2cccc3ccccc23)c2ccccc21 (configuration not stated)	0.75
Cc1c(C(=O)c2ccccc2I)c2ccccc2n1CC1CCCCN1C (single isomer, unassigned; (+))	6.7
Cc1c(C(=O)c2ccccc2I)c2ccccc2n1CC1CCCCN1C (single isomer, unassigned; (-))	1200
Cc1c(C(=O)c2ccccc2I)c2ccccc2n1CC1CCCCN1C (stereo in doubt; 5)	34

Biological target: Cannabinoid receptor 2 (Mus musculus, UniProt P47936)
Experiment: Binding affinity towards mouse spleen cannabinoid receptor 2 using [3H]CP-55940
Type: tissue-based

Chain of Cannabinoid receptor 2 (P47936 whole entry): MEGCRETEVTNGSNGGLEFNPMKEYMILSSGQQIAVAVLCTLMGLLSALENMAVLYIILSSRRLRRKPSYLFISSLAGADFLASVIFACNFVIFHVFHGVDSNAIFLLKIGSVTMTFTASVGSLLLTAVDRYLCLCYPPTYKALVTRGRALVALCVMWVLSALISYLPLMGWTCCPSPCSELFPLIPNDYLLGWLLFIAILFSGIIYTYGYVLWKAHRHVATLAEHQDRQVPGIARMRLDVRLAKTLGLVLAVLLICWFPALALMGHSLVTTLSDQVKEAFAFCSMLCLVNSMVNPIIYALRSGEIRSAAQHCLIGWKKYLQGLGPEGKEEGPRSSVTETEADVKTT

Structure (SMILES)	Ki [nM]
Cc1c(C(=O)c2ccc(I)cc2)c2ccccc2n1CC1CCCCN1C (configuration not stated)	790
Cc1c(C(=O)c2cccc(I)c2)c2ccccc2n1CC1CCCCN1C (configuration not stated)	9600
CN1CCCCC1Cn1cc(C(=O)c2ccc(I)c3ccccc23)c2ccccc21 (configuration not stated)	5.3
CN1CCCCC1Cn1cc(C(=O)c2cccc3ccccc23)c2ccc(I)cc21 (configuration not stated)	9.8
CN1CCCCC1Cn1cc(C(=O)c2cccc3ccccc23)c2ccccc21 (configuration not stated)	1.91
Cc1c(C(=O)c2ccccc2I)c2ccccc2n1CC1CCCCN1C (single isomer, unassigned; (+))	10
Cc1c(C(=O)c2ccccc2I)c2ccccc2n1CC1CCCCN1C (single isomer, unassigned; (-))	83
Cc1c(C(=O)c2ccccc2I)c2ccccc2n1CC1CCCCN1C (stereo in doubt; 5)	34
